Earlier results in patent US20140134224A1, “STABLE COMPOSITION OF HOCI, A PROCESS FOR ITS PRODUCTION AND USES THEREOF” (priority 2011, published 2014).
Where two headings read alike, the source gives them in different places.

Tests used:
[1] = Kapoor 1968
[2] = unstabilised HOCl solutions of the prior art
B. metiens spores = conditions: 25 ppm available chlorine

SMILES | times less effective than hypochlorous acid as a disinfectant [1] | half-life [2] | time taken to produce a 99% kill of spores (B. metiens spores; pH 6) [min] | time taken to produce a 99% kill of spores (B. metiens spores; pH 7) [min] | time taken to produce a 99% kill of spores (B. metiens spores; pH 8) [min] | time taken to produce a 99% kill of spores (B. metiens spores; pH 9) [min] | time taken to produce a 99% kill of spores (B. metiens spores; pH 9.35) [min] | time taken to produce a 99% kill of spores (B. metiens spores; pH 10) [min] | time taken to produce a 99% kill of spores (B. metiens spores; pH 12.86) [min]
OCl [hypochlorite ion, hypochlorite] | up to 120 times |  |  |  |  |  |  |  | 
OCl [HOCl, Hypochlorous (or hydrochlorous) acid] |  | around 48 hours | 2.5 | 3.6 | 5 | 19.5 | 35.5 | 131 | 465
